Where a SMILES comes first, the peptide text is derived from it.
Assays:
[1] = test system: primary human cells (3C, 4H, LPS, SAg, BT, BF4T, BE3C, CASM3C, HDF3CGF, KF3CT, MyoF, /Mphg systems); experiment: Study CSM001-01-b: biomarker readouts in primary human cell systems, compounds in DMSO; type: cell-based
Procedure: (§1) Profiling was performed using the following processes:
(§2) All test compounds were dissolved in dimethyl sulfoxide (DMSO).

primary human cells [2] = experiment: Study CSM001-01-b: overt cytotoxicity (SRB, Alamar Blue); type: cell-based; conditions: DMSO, >50% reduction in cellular protein levels (SRB) and/or PBMC viability
Procedure: An annotated assay profile was prepared for each test agent. Biomarker readouts are annotated when two or more consecutive concentrations are changed in the same direction, relative to the vehicle control, outside of the significance envelope and with an effect size of at least 10% (more than 0.05 log ratio units). Biomarker activities are annotated as “modulated” when they are increased in some system(s) and decreased in other system(s). If applicable, a benchmark overlay was performed at the top non-cytotoxic concentration. Results of a similarity search (all test agents) and clustering (at least three test agents) were determined. […] A table of overtly cytotoxic test agents was also prepared which are test agents with a >50% reduction in cellular protein levels (sulforhodamine B, SRB) in one or more systems; and/or >50% reduction in PBMC viability. […]
Alamar Blue assays were used to determine the viability of non-adherent PBMCs in the assay systems, and are based on the conversion of resazurin to resorufin via the reduction reactions of metabolically active cells. […] Upon entering cells, resazurin is reduced to resorufin which produces very bright red fluorescence. Viable cells continuously convert resazurin to resorufin, thereby generating a quantitative measure of viability and cytotoxicity. The amount of fluorescence produced is proportional to the number of living cells. […]

[3] = test system: primary human cells (3C, 4H, LPS, SAg, BT, BF4T, BE3C, CASM3C, HDF3CGF, KF3CT, MyoF, /Mphg systems); experiment: Study CSM002-01-b: biomarker readouts in primary human cell systems, compounds in PBS; type: cell-based; conditions: for TF / TM: hemostasis-related activity
Procedure: Profiling was performed using the following processes: […]

[4] = test system: primary human cells (HDFSAg, HDF3CGF, KF3CT, HDFLPS systems); experiment: Study CSM003-01-b: biomarker readouts in primary human cell systems, compounds in PBS; conditions: for pattern of immune responses in HDFSAg: HDFSAg system
Procedure: The following compounds were screened in the assay system at the noted concentrations to test for anti-proliferative, inflammation-related, immunomodulatory, tissue remodeling and hemostasis-related activities at the noted concentrations (Table 4). All test compounds were dissolved in phosphate buffered saline (PBS).
(§4) The following primary human cells were used as test systems: HDFSAg (dermal fibroblasts), HDF3CGF (dermal fibroblasts); KF3CT (keratinocytes+dermal fibroblasts) and HDFLPS (dermal fibroblasts+peripheral blood mononuclear cells).

fibroblasts = experiment: Study CSM003-01-b: anti-proliferative activity; type: cell-based, human; conditions: PBS, anhydrous
Procedure: All test compounds were dissolved in phosphate buffered saline (PBS).
as §4

[5] = test system: endothelial cells, T cells, coronary artery smooth muscle cells and fibroblasts; experiment: Study CSM002-01-b: anti-proliferative activity; type: cell-based, human; conditions: PBS
[6] = test system: endothelial cells, T cells, B cells, coronary artery smooth muscle cells and fibroblasts; experiment: Study CSM001-01-b: anti-proliferative activity; type: cell-based, human; conditions: DMSO
Procedure: as §2

B cells = experiment: Aspartame second activity profile (FIG. 47): anti-proliferative activity; type: cell-based, human
Procedure: as §1
(§3) FIG. 47 provides a second activity profile of aspartame. The key activities of aspartame include anti-proliferative to B cells (grey arrow); inflammation-related activities: decreased sTNFα and IL1α; increased MCP-1 and VCAM-1; immunomodulatory activities: increased sIL-17A, sIL-17F, sIL-6, and CD40; and tissue remodeling activities: decreased MMP9; increased MMP3, αSMA, and Col-I.

primary human cells [7] = experiment: Aspartame second activity profile (FIG. 47): biomarker readouts; type: cell-based
Procedure: as §1, §3

primary human cells [8] = experiment: Aspartame first activity profile (FIG. 46): biomarker readouts; type: cell-based
Procedure: as §1
FIG. 46 provides a first activity profile of aspartame. The key activities of aspartame include inflammation-related activities: decreased MCP-1 and SAA; increased IL-8, IL-1α and VCAM-1; immunomodulatory activities: decreased sIL-2; increased sIgG and sIL-6; modulated CD69; and tissue remodeling activities: decreased MMP-9; increased Collagen-I and tPA; modulated PAI-I.

SMILES: CC(=O)N[C@@H](CS)C(=O)O [N-acetyl-L-cysteine]
- CD40 ([1]; immunomodulatory activity): decreased
- sIL-17A ([1]; immunomodulatory activity): decreased
- Eotaxin-3 ([1]; inflammation-related activity): decreased
- IL-6 ([1]; inflammation-related activity): increased
- IL-8 ([1]; inflammation-related activity): modulated
- IP-10 ([1]; inflammation-related activity): decreased
- MIG ([1]; inflammation-related activity): decreased
- sTNFα ([1]; inflammation-related activity): decreased
- Collagen-I ([1]; tissue remodeling activity): increased
- EGFR ([1]; tissue remodeling activity): decreased
- Keratin 8/18 ([1]; tissue remodeling activity): increased
- MMP-1 ([1]; tissue remodeling activity): increased
- MMP-3 ([1]; tissue remodeling activity): increased
- MMP-9 ([1]; tissue remodeling activity): modulated
- PAI-I ([1]; tissue remodeling activity): increased
- TIMP-I ([1]; tissue remodeling activity): increased
- tPA ([1]; tissue remodeling activity): increased
- uPAR ([1]; tissue remodeling activity): increased
- overt cytotoxicity (primary human cells [2]): overtly toxic in multiple systems at the top two concentrations tested
- Esel ([3]; inflammation-related activity): decreased
- IL1α ([3]; inflammation-related activity): decreased
- IL-6 ([3]; inflammation-related activity): decreased
- IL-8 ([3]; inflammation-related activity): decreased
- IP-10 ([3]; inflammation-related activity): decreased
- ITAC ([3]; inflammation-related activity): decreased
- sTNFα ([3]; inflammation-related activity): decreased
- Col-I ([3]; tissue remodeling activity): increased
- EGFR ([3]; tissue remodeling activity): decreased
- MMP-3 ([3]; tissue remodeling activity): increased
- tPA ([3]; tissue remodeling activity): modulated
- αSMA ([3]; tissue remodeling activity): increased

SMILES: O.O.O.O.O.O.[Cl-].[Cl-].[Sr+2] [Strontium chloride hexahydrate]
- pattern of immune responses in HDFSAg [4]: enhanced immune responses
- sIL-6 ([4]; immunomodulatory activity): increased
- sIL-10 ([4]; immunomodulatory activity): increased
- sIL-17A ([4]; immunomodulatory activity): increased
- sIL-17F ([4]; immunomodulatory activity): increased

SMILES: O=[N+]([O-])[O-].O=[N+]([O-])[O-].[Sr+2] [Strontium nitrate, Strontium Nitrate]
- TF ([1]; hemostasis-related activity): increased
- TM ([1]; hemostasis-related activity): increased
- HLA-DR ([1]; immunomodulatory activity): decreased
- M-CSF ([1]; immunomodulatory activity): increased
- sIL-6 ([1]; immunomodulatory activity): decreased
- sIL-17A ([1]; immunomodulatory activity): decreased
- sIL-17F ([1]; immunomodulatory activity): decreased
- sIgG ([1]; immunomodulatory activity): decreased
- Eotaxin-3 ([1]; inflammation-related activity): decreased
- I-TAC ([1]; inflammation-related activity): decreased
- IL-1α ([1]; inflammation-related activity): decreased
- IL-8 ([1]; inflammation-related activity): decreased
- IP-10 ([1]; inflammation-related activity): decreased
- MCP-1 ([1]; inflammation-related activity): decreased
- SAA ([1]; inflammation-related activity): decreased
- VCAM-1 ([1]; inflammation-related activity): decreased
- sPGE2 ([1]; inflammation-related activity): increased
- sTNFα ([1]; inflammation-related activity): decreased
- Keratin 8/18 ([1]; tissue remodeling activity): increased
- MMP-1 ([1]; tissue remodeling activity): decreased
- MMP-3 ([1]; tissue remodeling activity): increased
- MMP-9 ([1]; tissue remodeling activity): decreased
- PAI-I ([1]; tissue remodeling activity): decreased
- TIMP-2 ([1]; tissue remodeling activity): increased
- uPAR ([1]; tissue remodeling activity): decreased
- proliferation of fibroblasts (fibroblasts): anti-proliferative to fibroblasts at the top concentration only
- proliferation of coronary artery smooth muscle cells [5]: anti-proliferative
- pattern of immune responses in HDFSAg [4]: enhanced immune responses
- sIL-2 ([4]; immunomodulatory activity): increased
- sIL-6 ([4]; immunomodulatory activity): increased
- sIL-10 ([4]; immunomodulatory activity): increased
- MCP-1 ([4]; inflammation-related activity): decreased
- proliferation of B cells [6]: anti-proliferative
- proliferation of T cells [6]: anti-proliferative
- proliferation of coronary artery smooth muscle cells [6]: anti-proliferative
- proliferation of endothelial cells [6]: anti-proliferative
- proliferation of fibroblasts [6]: anti-proliferative
- TF [3]: decreased
- TM [3]: increased
- CD40 ([3]; immunomodulatory activity): increased
- M-CSF ([3]; immunomodulatory activity): decreased
- ICAM-1 ([3]; inflammation-related activity): increased
- IL1α ([3]; inflammation-related activity): modulated
- IP-10 ([3]; inflammation-related activity): decreased
- MIP-1 ([3]; inflammation-related activity): decreased
- VCAM-1 ([3]; inflammation-related activity): increased
- sTNFα ([3]; inflammation-related activity): decreased
- Ker 8/18 ([3]; tissue remodeling activity): increased
- MMP-1 ([3]; tissue remodeling activity): increased
- MMP-9 ([3]; tissue remodeling activity): increased
- tPA ([3]; tissue remodeling activity): increased
- uPAR ([3]; tissue remodeling activity): increased

SMILES: COC(=O)[C@H](Cc1ccccc1)NC(=O)[C@@H](N)CC(=O)O [aspartame] (H-Asp-Phe-OMe)
- proliferation of B cells (B cells): anti-proliferative
- CD40 (primary human cells [7]; immunomodulatory activity): increased
- sIL-6 (primary human cells [7]; immunomodulatory activity): increased
- sIL-17A (primary human cells [7]; immunomodulatory activity): increased
- sIL-17F (primary human cells [7]; immunomodulatory activity): increased
- IL1α (primary human cells [7]; inflammation-related activity): decreased
- MCP-1 (primary human cells [7]; inflammation-related activity): increased
- VCAM-1 (primary human cells [7]; inflammation-related activity): increased
- sTNFα (primary human cells [7]; inflammation-related activity): decreased
- Col-I (primary human cells [7]; tissue remodeling activity): increased
- MMP3 (primary human cells [7]; tissue remodeling activity): increased
- MMP9 (primary human cells [7]; tissue remodeling activity): decreased
- αSMA (primary human cells [7]; tissue remodeling activity): increased
- CD69 (primary human cells [8]; immunomodulatory activity): modulated
- sIL-2 (primary human cells [8]; immunomodulatory activity): decreased
- sIL-6 (primary human cells [8]; immunomodulatory activity): increased
- sIgG (primary human cells [8]; immunomodulatory activity): increased
- IL-1α (primary human cells [8]; inflammation-related activity): increased
- IL-8 (primary human cells [8]; inflammation-related activity): increased
- MCP-1 (primary human cells [8]; inflammation-related activity): decreased
- SAA (primary human cells [8]; inflammation-related activity): decreased
- VCAM-1 (primary human cells [8]; inflammation-related activity): increased
- Collagen-I (primary human cells [8]; tissue remodeling activity): increased
- MMP-9 (primary human cells [8]; tissue remodeling activity): decreased
- PAI-I (primary human cells [8]; tissue remodeling activity): modulated
- tPA (primary human cells [8]; tissue remodeling activity): increased

SMILES: CC(O)CC(=O)O (stereo not drawn) [beta hydroxybutyric acid]
- M-CSF ([1]; immunomodulatory activity): increased
- sIgG ([1]; immunomodulatory activity): decreased
- ICAM-1 ([1]; inflammation-related activity): increased
- IL-1α ([1]; inflammation-related activity): increased
- IL-8 ([1]; inflammation-related activity): decreased
- MIG ([1]; inflammation-related activity): decreased
- VCAM-1 ([1]; inflammation-related activity): decreased
- Collagen-I ([1]; tissue remodeling activity): increased
- EGFR ([1]; tissue remodeling activity): increased
- MMP-9 ([1]; tissue remodeling activity): modulated
- PAI-I ([1]; tissue remodeling activity): modulated
- tPA ([1]; tissue remodeling activity): increased
- uPA ([1]; tissue remodeling activity): increased
- proliferation of T cells [5]: anti-proliferative
- proliferation of coronary artery smooth muscle cells [5]: anti-proliferative
- proliferation of endothelial cells [5]: anti-proliferative
- proliferation of T cells [6]: anti-proliferative
- proliferation of endothelial cells [6]: anti-proliferative
- overt cytotoxicity (primary human cells [2]): overtly toxic in multiple systems at the top concentration tested
- TF [3]: increased
- TM [3]: increased
- CD40 ([3]; immunomodulatory activity): increased
- CD69 ([3]; immunomodulatory activity): increased
- M-CSF ([3]; immunomodulatory activity): increased
- sIL-6 ([3]; immunomodulatory activity): increased
- IL1α ([3]; inflammation-related activity): decreased
- IL-8 ([3]; inflammation-related activity): decreased
- MCP-1 ([3]; inflammation-related activity): increased
- sTNFα ([3]; inflammation-related activity): decreased
- Col-I ([3]; tissue remodeling activity): increased
- MMP-3 ([3]; tissue remodeling activity): increased
- MMP-9 ([3]; tissue remodeling activity): decreased
- αSMA ([3]; tissue remodeling activity): increased

SMILES: O=C(O)c1cc(O)c(O)c(O)c1 [gallic acid, 3,4,5-trihydroxy benzoic acid]
- M-CSF ([1]; immunomodulatory activity): decreased
- sIL-2 ([1]; immunomodulatory activity): decreased
- sIL-10 ([1]; immunomodulatory activity): increased
- sIL-17A ([1]; immunomodulatory activity): decreased
- Eotaxin-3 ([1]; inflammation-related activity): decreased
- I-TAC ([1]; inflammation-related activity): decreased
- ICAM-1 ([1]; inflammation-related activity): decreased
- IL-1α ([1]; inflammation-related activity): decreased
- IL-8 ([1]; inflammation-related activity): increased
- IP-10 ([1]; inflammation-related activity): decreased
- MIG ([1]; inflammation-related activity): decreased
- MIP-1 ([1]; inflammation-related activity): increased
- SAA ([1]; inflammation-related activity): decreased
- VCAM-1 ([1]; inflammation-related activity): modulated
- sTNFα ([1]; inflammation-related activity): decreased
- Collagen-III ([1]; tissue remodeling activity): increased
- Collagen-IV ([1]; tissue remodeling activity): increased
- EGFR ([1]; tissue remodeling activity): increased
- Keratin 8/18 ([1]; tissue remodeling activity): decreased
- MMP-1 ([1]; tissue remodeling activity): increased
- MMP-3 ([1]; tissue remodeling activity): increased
- MMP-9 ([1]; tissue remodeling activity): decreased
- PAI-I ([1]; tissue remodeling activity): modulated
- bFGF ([1]; tissue remodeling activity): decreased
- tPA ([1]; tissue remodeling activity): increased
- α-SMA ([1]; tissue remodeling activity): increased
- proliferation of T cells [5]: anti-proliferative
- proliferation of coronary artery smooth muscle cells [5]: anti-proliferative
- proliferation of endothelial cells [5]: anti-proliferative
- proliferation of fibroblasts [5]: anti-proliferative
- proliferation of T cells [6]: antiproliferative
- proliferation of coronary artery smooth muscle cells [6]: antiproliferative
- proliferation of endothelial cells [6]: antiproliferative
- proliferation of fibroblasts [6]: antiproliferative
- M-CSF ([3]; immunomodulatory activity): modulated
- IL-8 ([3]; inflammation-related activity): increased
- IP-10 ([3]; inflammation-related activity): increased
- ITAC ([3]; inflammation-related activity): decreased
- VCAM-1 ([3]; inflammation-related activity): decreased
- sPGE2 ([3]; inflammation-related activity): increased
- sTNFα ([3]; inflammation-related activity): decreased
- MMP-9 ([3]; tissue remodeling activity): increased
- tPA ([3]; tissue remodeling activity): increased
- uPA ([3]; tissue remodeling activity): increased
- αSMA ([3]; tissue remodeling activity): increased
